In patent US10653667B2, “Drug for preventing, treating or preventing metastasis of giant cell tumor that occurs in bone or soft parts, chondrosarcoma, or osteosarcoma, local injection for arterial embolization, and artificial bone” (NIPPON CHEMIPHAR CO., LTD, priority 2013, dated 2020):

Key:
[1] = test system: cultured cells of human giant cell tumor of tendon sheath (GCTT); test: Tunel assay and caspase 3 staining of GCTT cultured cells; assay type: cell-based; details: zaltoprofen 400 μM or troglitazone 200 μM, compared with control
Protocol: Further, the aforementioned GCTB cultured cells of the case 1 mentioned above were cultured on chamber cover slide glass, and zaltoprofen was added at different concentrations (100, and 200 μM) 24 hours afterward. Then, 8 hours and 24 hours afterward, the cells were fixed with 4% paraformaldehyde, staining with caspase 3 and Tunel assay were performed, and presence or absence of apoptosis was analyzed. In the Tunel assay, fragmented DNAs produced in the process of apoptosis were detected by the TdT-mediated dUTP nick end labeling method (TUNEL). Observation was performed with a fluorescence microscope (BZ-9000) of Keyence, and positive images for each concentration were quantitatively observed (FIGS. 2 to 5).
Further, in the same manner as that of Example 1, the cultured cells of human giant cell tumor of tendon sheath (GCTT) and the cultured cells of human pigmented villonodular synovitis (PVNS) were subjected to staining with caspase 3 and Tunel assay, and presence or absence of apoptosis was analyzed (FIGS. 18 to 25).

[2] = test system: PPARγ expression in cells of giant cell tumor of tendon sheath (GCTT); test: PPARγ immunostaining of GCTT cells; assay type: cell-based, human; details: zaltoprofen 400 μM or troglitazone 200 μM
[3] = test system: cells of pigmented villonodular synovitis (PVNS); test: Fat cell differentiation of PVNS cells (HCS LipidTOX Green); assay type: cell-based, human; details: zaltoprofen 400 μM, compared with control
Protocol: It has been reported that PPARγ is a transcription factor indispensable for fat cell differentiation. Therefore, the GCTB cultured cells of the aforementioned case 1 were cultured on chamber cover slide glass, and when they reached confluent, zaltoprofen was added to the cells at various concentrations (10, 50, and 100 μM). From 24 hours thereafter, the cells were cultured in a fat cell differentiation-inducing medium (STREMPRO Adipogenesis Differentiation Kit, Invitrogen) for 7 to 14 days, and differentiation into fat cells was analyzed with HCS Lipid TOX Green Neutral Lipid Stain (Invitrogen) (FIGS. 8 and 9).
It has been reported that PPARγ is a transcription factor indispensable for fat cell differentiation. Therefore, in the same manner as that of Example 3, zaltoprofen was added at a concentration of 400 μM to the cells of giant cell tumor of tendon sheath (GCTT) or cells of pigmented villonodular synovitis (PVNS), and differentiation into fat cells was analyzed (FIGS. 30 and 31). As a result, it was successfully confirmed that the positive images obtained with HCS LipidTOX Green increased in the zaltoprofen-added cells compared with the control.

[4] = test system: SW1353 cells; test: Suppression of cell proliferation of chondrosarcoma cell line SW1353 (CCK-8); assay type: cell-based, human; details: drug at various concentrations
Description: The H-EMC-SS cells were obtained from the Riken BioResource Center. As the SW1353 cells, those obtained from ATCC were used.

[5] = test system: OUMS-27 cells; test: Suppression of proliferation of human chondrosarcoma cell line OUMS-27 (CCK-8); assay type: cell-based; details: at concentrations of 200 μM and 400 μM (50-400 μM tested); 72 hours
[6] = test system: SW1353 cells; test: Cell invasion of SW1353 cells cultured beforehand with or without GW9662; assay type: cell-based, human
Protocol: Cells of the human chondrosarcoma cell line, SW1353, were cultured in the same manner as that of Example 1 until they became sub-confluent, then, GW9662, which is an irreversible antagonist of PPARγ, was added to the cells at a final concentration of 1 μM, and the cells were cultured for 60 minutes. Then, zaltoprofen was added to the cells at various concentrations of 200, 300, and 400 μM, cell invasion was measured with Matrigel™ Invasion Chamber (BD Bioscience, catalog number 354480) 24 hours afterward, and the result was compared with the degree of cell invasion observed with addition of only DMSO not dissolving GW9662 (FIG. 78).

[7] = test system: giant cell tumor of bone; test: Curative effect of zaltoprofen (Soleton Tablet) on patients with giant cell tumor of bone; assay type: in vivo, human
Protocol: Soleton Tablet 80 (generic name: zaltoprofen, 80 mg, Nippon Chemiphar) was administered to a patient with giant cell tumor of bone (GCTB), patient with giant cell tumor of tendon sheath (GCTT), or patient with pigmented villonodular synovitis (PVNS) at a dose of 3 tablets per day (one tablet was administered in the morning, at noon, and in the evening), and the tumor size was evaluated by MRI every several months.
Soleton Tablet 80 (generic name: zaltoprofen, 80 mg, Nippon Chemiphar) was administered to patients with giant cell tumor of bone at a dose of 3 tablets per day (one tablet was administered in the morning, at noon, and in the evening). Four weeks after the start of the administration, the tumor size was evaluated by imaging based on simple Roentgen contrast method, X-ray CT, and MRI (nuclear magnetic resonance imaging). Then, the tumors were excised from patients for whom surgical operation was possible, administration of zaltoprofen was continued at a dose of 240 mg per day (one 80 mg tablet was administered at the time of breakfast, lunch, and supper), and the tumor size was evaluated by imaging based on simple Roentgen contrast method, X-ray CT, and MRI (nuclear magnetic resonance imaging) every 16 weeks. Also for patients for whom surgical operation was difficult, administration of zaltoprofen was continued at a dose of 240 mg per day (one 80 mg tablet was administered at the time of breakfast, lunch, and supper), and the tumor size was evaluated by imaging based on simple Roentgen contrast method, X-ray CT, and MRI (nuclear magnetic resonance imaging) every 8 weeks.

[8] = test system: GCTB cultured cells of the case 1; details: GCTB derived from a patient; inventors' earlier reports; cited from earlier work
[9] = test system: PPARγ expression in giant cell tumor of bone (GCTB); details: patient who had taken zaltoprofen for four weeks at 240 mg per day; inventors' earlier reports; cited from earlier work
[10] = test system: PPARγ expression in H-EMC-SS cells; details: inventors' earlier reports; cited from earlier work
[11] = test system: synovial cells derived from rheumatism patients; details: cited from earlier work
[12] = among the 13 cases of GCTB, zaltoprofen 240 mg per day

## CC(C(=O)O)c1ccc2c(c1)CC(=O)c1ccccc1S2 (centres unmarked) [zaltoprofen]
[1]
  Tunel-positive ratio: increased
  caspase 3-positive ratio: increased
[2]
  expression of PPARγ (PPARγ-positive images): expression of PPARγ was successfully observed
[3]
  positive images obtained with HCS LipidTOX Green (differentiation into fat cells): increased
[4]
  suppression of cell proliferation (absorbance at 450 nm): suppressed proliferation
[5]
  suppression of proliferation of OUMS-27 cells: suppressed proliferation
[6]; 400 μM zaltoprofen, 24 hours, without GW9662
  suppression of cell invasion of SW1353 cells: higher than 80%
[6]; 400 zaltoprofen, GW9662 1 μM
  suppression of the cell invasion after preincubation with GW9662: substantially eliminated by GW9662
[7]; GCTB case a
  response evaluation: PR (“partial response (PR)” means a state that the total of sizes of tumor has decreased by 30% or more)
[7]; GCTB case a (person, pelvis)
  shrinkage of tumor size: more than 70%
[7]; GCTB case a, up to today
  recurrence after excision by surgical operation: no recurrence has been observed
[7]; GCTB case c, proximal part of left fibula, about nine weeks, 23.3 mm before
  diameter of the giant cell tumor of bone after taking zaltoprofen: 21.0 mm
[7]; GCTB case d, distal part of right tibia, about eight weeks, 21.7 mm before
  diameter of the giant cell tumor of bone after taking zaltoprofen: 20.5 mm
[7]; GCTB case g
  change of giant cell tumor of bone: did not shrink, but it also did not grow
[7]; GCTB case g, score 80 before
  KPS score after taking zaltoprofen: 100
[7]; GCTB case j (Zometa and artery embolization used in combination)
  growth of the giant cell tumor of bone: about 6%
[7]; GCTB case j, score 50 before
  KPS score after taking zaltoprofen: 90
[7]; GCTB case k
  growth of the giant cell tumor of bone: about 10%
[7]; GCTB case k, score 80 before
  KPS score after taking zaltoprofen: 90
[7]; GCTB case l (printed case 1; left knee part), took only about a half of the prescribed dose
  increase of the size of the giant cell tumor of bone: 19.8%
[7]; GCTB case m (printed case in; person, proximal part of right tibia, multiple metastases to the lung)
  response evaluation: PD (“progressive disease (PD)” means a state that the total of sizes of tumor has increased by 20% or more, and increased by 5 mm or more in terms of absolute value, or a state that new lesion has appeared)
[7]; GCTB case m, score 90 before
  KPS score after taking zaltoprofen: 100
[7]; GCTB cases a, b, d, g, i, and j
  number of cases with hardening of bones on X-ray CT images: 6 cases
[7]; GCTB cases a, c, and d, score 80 before
  KPS score after taking zaltoprofen: 90
[7]; GCTB cases a, c, d, e, and f, no treatment except zaltoprofen
  change of giant cell tumors of bone: shrank
[7]; GCTB patients
  new metastasis during the taking of zaltoprofen: any new metastasis of giant cell tumor of bone was not observed
[7]; GCTB patients subjected to ablative operation
  recurrence during the taking of zaltoprofen after ablative operation: no recurrence of giant cell tumor of bone could be confirmed
[7]; [12]
  number of cases diagnosed partial response (PR): one
  number of cases diagnosed progressive disease (PD): one
[7]; cases of giant cell tumor of bone who took zaltoprofen
  cases in which the KPS score worsened: no case in which the KPS score worsened
[7]; recurrence of GCTB in the pelvic part (case a), after two months (FIG. 35) and four months (FIG. 36)
  MRI finding indicated by arrows: tumor necrosis region
[7]; recurrence of GCTB in the pelvic part (person; case a), 3 tablets per day, after two months and four months
  tumor size by MRI: gradual shrinkage of the tumor
[8]
  differentiation of the cells into fat cells: induced differentiation of the cells into fat cells
[9]
  cells observed instead of the tumor: fat cell-like cells showing enhanced expression of PPARγ were observed
[10]
  expression of PPARγ in H-EMC-SS cells: promoted expression of PPARγ
[11]
  activation of PPARγ: activated PPARγ
  apoptosis: caused apoptosis
  suppression of proliferation of the cells: suppress proliferation
